# Reference: patent US4495197A, “N-Carboxyl-thienamycin esters and analogs thereof as anti-inflammatory agents” (Merck & Co., Inc., priority 1982, dated 1985)
# Where two headings read alike, the source gives them in different places.
# Biological target: T1, Human Polymorphonuclear Leukocyte Elastase (Homo sapiens, UniProt P08246)
# T1 construct: Crude extract of human polymorphonuclear leukocytes (PMN) containing elastase activity; from tissue; host or cells: human polymorphonuclear leukocytes (crude extract)
# T1 sequence (P08246 30-247 limits assumed): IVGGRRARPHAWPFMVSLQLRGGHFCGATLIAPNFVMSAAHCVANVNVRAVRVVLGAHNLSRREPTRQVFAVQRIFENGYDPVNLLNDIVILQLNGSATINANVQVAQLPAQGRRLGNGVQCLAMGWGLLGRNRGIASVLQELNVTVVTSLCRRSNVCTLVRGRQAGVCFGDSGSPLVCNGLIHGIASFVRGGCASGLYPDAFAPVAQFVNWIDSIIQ
# Assay: Inhibition of human PMN elastase via hydrolysis of N-t-Boc-alanyl-alanyl-prolylalanine-p-nitroanilide
# Type: biochemical
# Settings: pH 7.5
# Procedure: Protocol-Enzyme Assays for the Inhibition of Human Polymorphonuclear Leukocyte Elastase Via Hydrolysis of N-t-Boc-alanyl-alanyl-prolylalanine-p-nitroanilide Reagents:
# 0.05M TES (N-tris[hydroxymethyl]methyl-2-amino-ethanesulfonic acid) Buffer, pH 7.5.
# 0.2 mM N-t-Boc-alanyl-alanyl-Prolyl-Alanine-p-nitroanilide (Boc-AAPAN).
# To prepare substrate, the solid (m.w. 550) was first dissolved in 10.0 ml DMSO. Buffer at pH 7.5 was then added to a final volume of 100 ml.
# Crude extract of human polymorphonuclear leukocytes (PMN) containing elastase activity.
# Inhibitors (N-carboxyl-thienamycin eesters) to be tested dissolved in DMSO just before use.
# To 1.0 ml of 0.2 mM Boc-AAPAN in a cuvette, 0.01-0.1 ml of DMSO with or without inhibitor was added. After mixing, a measurement was taken at 410 mμ to detect any spontaneous hydrolysis due to presence of test compound. 0.05 Milliliters of PMN extract was then added and the ΔOD/min at 410 mμ was measured and recorded. Beckman model 35 spectrophotometer was used.
# Results were reported as % inhibition produced by test compound within 2 minutes as represented by the % decrease in ΔOD/min as compared to a control without inhibitor.
# The elastase activity in the crude PMN extract may vary from one preparation to another. A control of each new batch is run, and the volume added in the assay procedure is adjusted according to activity.
Compound,inhibition at 10 µg/mL,inhibition at 25 µg/mL,inhibition at 50 µg/mL,inhibition at 0.5 µg/mL,inhibition at 5 µg/mL,inhibition at 20 µg/mL,other results
CC(OC(=O)OCc1ccc([N+](=O)[O-])cc1)C1C(=O)N2C(C(=O)OCc3ccc([N+](=O)[O-])cc3)=C(SCCNC(=O)OCc3ccc([N+](=O)[O-])cc3)CC12 (centres unmarked),29%,45%,55%,–,–,–,–
CC(CSC1=C(C(=O)OCc2ccc([N+](=O)[O-])cc2)N2C(=O)C(C(C)O)C2C1)NC(=O)OCc1ccc([N+](=O)[O-])cc1 (centres unmarked),94%,100%,–,42%,–,–,inhibition at 1 µg/mL: 55%; inhibition at 2 µg/mL: 77%
O=C(NCCSC1=C(C(=O)OCc2ccc([N+](=O)[O-])cc2)N2C(=O)CC2C1)OCc1ccc([N+](=O)[O-])cc1 (centres unmarked) [H PNB PNB H H],–,–,63%,–,18%,50%,–
"CC(O)C1C(=O)N2C(C(=O)OCc3ccccc3)=C(SCCNC(=O)OCc3ccccc3)CC12 (centres unmarked) ["" benzyl benzyl H H]",–,–,–,–,–,–,"inhibition at 5 µg/mL (conc. 5 μg/ml, measured within 2 minutes, crude PMN extract, Boc-AAPAN substrate, read-out: % Inhibition): 33%; inhibition at 20 µg/mL (conc. 20 μg/ml, measured within 2 minutes, crude PMN extract, Boc-AAPAN substrate, read-out: % Inhibition): 69%; inhibition at 50 µg/mL (conc. 50 μg/ml, measured within 2 minutes, crude PMN extract, Boc-AAPAN substrate, read-out: % Inhibition): 86%"
CC(O)C1C(=O)N2C(C(=O)OCc3ccc([N+](=O)[O-])cc3)=C(SCC(C)(C)NC(=O)OCc3ccc([N+](=O)[O-])cc3)CC12 (centres unmarked),–,–,–,45%,89%,100%,–
